From ChEMBL document CHEMBL4680076, “Hydraphiles enhance antimicrobial potency against Escherichia coli, Pseudomonas aeruginosa, and Bacillus subtilis” (2016)
Converted amounts (≈) assume the structure as drawn. Values belong to the compound of their own block, whether it stands above or below them. The source made the active and inactive calls. The rule behind the calls is not given here.

Experiments:
Pseudomonas aeruginosa [1] = experiment: Antimicrobial activity against Pseudomonas aeruginosa assessed as inhibition of bacterial growth incubated for overnight by CLSI method; type: functional
Escherichia coli [2] = experiment: Antimicrobial activity against Escherichia coli K-12 assessed as inhibition of bacterial growth incubated for overnight by CLSI method; type: functional
Bacillus subtilis [3] = experiment: Antimicrobial activity against Bacillus subtilis assessed as inhibition of bacterial growth incubated for overnight by CLSI method; type: functional
Escherichia coli [4] = experiment: Antimicrobial activity against Escherichia coli DH5alpha assessed as inhibition of bacterial growth incubated for overnight by CLSI method; type: functional; conditions: DH5[alpha]
Escherichia coli [5] = experiment: Growth inhibition of Escherichia coli DH5alpha at 50 uM measured every 15 mins for 12 hrs; type: functional, organism-based; conditions: DH5[alpha]
Escherichia coli [6] = experiment: Growth inhibition of Escherichia coli DH5alpha at 25 uM measured every 15 mins for 12 hrs; type: functional, organism-based; conditions: DH5[alpha]
Pseudomonas aeruginosa [7] = experiment: Synergistic antimicrobial activity against Pseudomonas aeruginosa assessed as fold enhancement in erythromycin potency at 0.5 uM incubated for overnight by CLSI method; type: functional
Pseudomonas aeruginosa [8] = experiment: Synergistic antimicrobial activity against Pseudomonas aeruginosa assessed as fold enhancement in erythromycin potency at 1 uM incubated for overnight by CLSI method; type: functional
Escherichia coli [9] = experiment: Synergistic antimicrobial activity against Escherichia coli DH5alpha assessed as fold enhancement in erythromycin potency at 150 uM incubated for overnight by CLSI method; type: functional, DH5[alpha]
Escherichia coli [10] = experiment: Synergistic antimicrobial activity against Escherichia coli K-12 assessed as enhancement in rifampicin potency at 2.5 uM; type: functional, organism-based
Escherichia coli [11] = experiment: Synergistic antimicrobial activity against Escherichia coli DH5alpha assessed as fold enhancement in kanamycin potency at 75 uM incubated for overnight by CLSI method; type: functional, DH5[alpha]
Escherichia coli [12] = experiment: Synergistic antimicrobial activity against Escherichia coli DH5alpha assessed as fold enhancement in rifampicin potency at 150 uM incubated for overnight by CLSI method; type: functional, DH5[alpha]
Escherichia coli [13] = experiment: Synergistic antimicrobial activity against Escherichia coli DH5alpha assessed as fold enhancement in tetracycline potency at 75 uM incubated for overnight by CLSI method; type: functional, DH5[alpha]
[14] = Synergistic antimicrobial activity against Escherichia coli DH5alpha assessed as fold enhancement in erythromycin potency at 75 uM incubated for overnight by CLSI method; type: functional, K-12
Escherichia coli [15] = experiment: Synergistic antimicrobial activity against Escherichia coli DH5alpha assessed as fold enhancement in tetracycline potency at 150 uM incubated for overnight by CLSI method; type: functional, DH5[alpha]
Escherichia coli [16] = experiment: Synergistic antimicrobial activity against Escherichia coli DH5alpha assessed as fold enhancement in kanamycin potency at 150 uM incubated for overnight by CLSI method; type: functional, DH5[alpha]
Escherichia coli [17] = experiment: Synergistic antimicrobial activity against Escherichia coli DH5alpha assessed as fold enhancement in rifampicin potency at 75 uM incubated for overnight by CLSI method; type: functional, DH5[alpha]
Escherichia coli [18] = experiment: Synergistic antimicrobial activity against Escherichia coli K-12 assessed as fold enhancement in rifampicin potency at 0.6 uM incubated for overnight by CLSI method; type: functional
Escherichia coli [19] = experiment: Synergistic antimicrobial activity against Escherichia coli K-12 assessed as fold enhancement in rifampicin potency at 1.25 uM incubated for overnight by CLSI method; type: functional
Escherichia coli [20] = experiment: Synergistic antimicrobial activity against Escherichia coli K-12 assessed as fold enhancement in tetracycline potency at 1.25 uM incubated for overnight by CLSI method; type: functional
Pseudomonas aeruginosa [21] = experiment: Synergistic antimicrobial activity against Pseudomonas aeruginosa assessed as fold enhancement in tetracycline potency at 0.5 uM incubated for overnight by CLSI method; type: functional
Escherichia coli [22] = experiment: Synergistic antimicrobial activity against Escherichia coli K-12 assessed as fold enhancement in erythromycin potency at 1.25 uM incubated for overnight by CLSI method; type: functional
Escherichia coli [23] = experiment: Synergistic antimicrobial activity against Escherichia coli K-12 assessed as fold enhancement in kanamycin potency at 0.6 uM incubated for overnight by CLSI method; type: functional, organism-based
Bacillus subtilis [24] = experiment: Synergistic antimicrobial activity against Bacillus subtilis assessed as fold enhancement in tetracyclin potency at 0.12 uM incubated for overnight by CLSI method; type: functional
Escherichia coli [25] = experiment: Growth inhibition of Escherichia coli DH5alpha at half MIC measured every 15 mins for 12 hrs in presence of 25 uM erythromycin; type: functional, organism-based; conditions: DH5[alpha]
Bacillus subtilis [26] = experiment: Synergistic antimicrobial activity against Bacillus subtilis assessed as fold enhancement in erythromycin potency at 0.12 uM incubated for overnight by CLSI method; type: functional
Escherichia coli [27] = experiment: Synergistic antimicrobial activity against Escherichia coli K-12 assessed as fold enhancement in kanamycin potency at 1.25 uM incubated for overnight by CLSI method; type: functional
Pseudomonas aeruginosa [28] = experiment: Synergistic antimicrobial activity against Pseudomonas aeruginosa assessed as fold enhancement in rifampicin potency at 1 uM incubated for overnight by CLSI method; type: functional
Escherichia coli [29] = experiment: Growth inhibition of Escherichia coli DH5alpha at half MIC measured every 15 mins for 12 hrs; type: functional, organism-based; conditions: DH5[alpha]
Pseudomonas aeruginosa [30] = experiment: Synergistic antimicrobial activity against Pseudomonas aeruginosa assessed as fold enhancement in rifampicin potency at 0.5 uM incubated for overnight by CLSI method; type: functional
Escherichia coli [31] = experiment: Synergistic antimicrobial activity against Escherichia coli K-12 assessed as fold enhancement in erythromycin potency at 0.6 uM incubated for overnight by CLSI method; type: functional
Escherichia coli [32] = experiment: Synergistic antimicrobial activity against Escherichia coli K-12 assessed as fold enhancement in tetracycline potency at 0.6 uM incubated for overnight by CLSI method; type: functional
Pseudomonas aeruginosa [33] = experiment: Synergistic antimicrobial activity against Pseudomonas aeruginosa assessed as fold enhancement in tetracycline potency at 1 uM incubated for overnight by CLSI method; type: functional

Structure (SMILES): CN(C)[C@@H]1C(O)=C(C(N)=O)C(=O)[C@@]2(O)C(O)=C3C(=O)c4c(O)cccc4[C@@](C)(O)[C@H]3C[C@@H]12 [TETRACYCLINE]
MIC (Pseudomonas aeruginosa [1]): 12 µM (≈ 5.33 µg/mL)
MIC (Escherichia coli [2]): 5 µM (≈ 2.22 µg/mL)
MIC (Bacillus subtilis [3]): 3 µM (≈ 1.33 µg/mL)
MIC (Escherichia coli [4]): 5 µM (≈ 2.22 µg/mL)

Structure (SMILES): CC[C@H]1OC(=O)[C@H](C)[C@@H](O[C@H]2C[C@@](C)(OC)[C@@H](O)[C@H](C)O2)[C@H](C)[C@@H](O[C@@H]2O[C@H](C)C[C@H](N(C)C)[C@H]2O)[C@](C)(O)C[C@@H](C)C(=O)[C@H](C)[C@@H](O)[C@]1(C)O [ERYTHROMYCIN]
growth inhibition (GI) (Escherichia coli [5]): Active
MIC (Pseudomonas aeruginosa [1]): 200 µM (≈ 147 µg/mL)
MIC (Escherichia coli [2]): 700 µM (≈ 514 µg/mL)
MIC (Bacillus subtilis [3]): 0.3 µM (≈ 0.22 µg/mL)
MIC (Escherichia coli [4]): 200 µM (≈ 147 µg/mL)
growth inhibition (GI) (Escherichia coli [6]): inactive

Structure (SMILES): c1ccc(CN2CCOCCOCCN(CCCCCCCCN3CCOCCOCCN(CCCCCCCCN4CCOCCOCCN(Cc5ccccc5)CCOCCOCC4)CCOCCOCC3)CCOCCOCC2)cc1
fold change (FC) (Escherichia coli [9]): 13
Activity (Escherichia coli [10]): inactive
fold change (FC) (Escherichia coli [11]): 2
fold change (FC) (Escherichia coli [12]): 18
MIC (Escherichia coli [2]): 200 µM (≈ 238 µg/mL)
fold change (FC) (Escherichia coli [13]): 2
fold change (FC) [14]: 8
MIC (Escherichia coli [4]): 300 µM (≈ 356 µg/mL)
fold change (FC) (Escherichia coli [15]): 5
fold change (FC) (Escherichia coli [16]): 3
fold change (FC) (Escherichia coli [17]): 18

Structure (SMILES): CO[C@H]1/C=C/O[C@@]2(C)Oc3c(C)c(O)c4c(O)c(c(/C=N/N5CCN(C)CC5)c(O)c4c3C2=O)NC(=O)/C(C)=C\C=C\[C@H](C)[C@H](O)[C@@H](C)[C@@H](O)[C@@H](C)[C@H](OC(C)=O)[C@@H]1C [RIFAMPIN]
MIC (Pseudomonas aeruginosa [1]): 25 µM (≈ 20.6 µg/mL)
MIC (Escherichia coli [2]): 16 µM (≈ 13.2 µg/mL)
MIC (Escherichia coli [4]): 55 µM (≈ 45.3 µg/mL)

Compounds with a lower MIC (Escherichia coli [4]), results first:

MIC (Pseudomonas aeruginosa [1]): 2 µM (≈ 2.82 µg/mL)
MIC (Escherichia coli [4]): 4 µM (≈ 5.65 µg/mL)
Structure (SMILES): c1ccc(CN2CCOCCOCCN(CCCCCCCCCCCCCCCCN3CCOCCOCCN(CCCCCCCCCCCCCCCCN4CCOCCOCCN(Cc5ccccc5)CCOCCOCC4)CCOCCOCC3)CCOCCOCC2)cc1
fold change (FC) (Pseudomonas aeruginosa [7]): 4
fold change (FC) (Pseudomonas aeruginosa [8]): 8

MIC (Pseudomonas aeruginosa [1]): 2 µM (≈ 2.71 µg/mL)
MIC (Escherichia coli [2]): 2.5 µM (≈ 3.39 µg/mL)
MIC (Bacillus subtilis [3]): 0.5 µM (≈ 0.678 µg/mL)
MIC (Escherichia coli [4]): 2 µM (≈ 2.71 µg/mL)
Structure (SMILES): c1ccc(CN2CCOCCOCCN(CCCCCCCCCCCCCCN3CCOCCOCCN(CCCCCCCCCCCCCCN4CCOCCOCCN(Cc5ccccc5)CCOCCOCC4)CCOCCOCC3)CCOCCOCC2)cc1
fold change (FC) (Escherichia coli [18]): 4
fold change (FC) (Escherichia coli [19]): 30
fold change (FC) (Escherichia coli [20]): 5
fold change (FC) (Pseudomonas aeruginosa [21]): 2
fold change (FC) (Escherichia coli [22]): 9
fold change (FC) (Escherichia coli [23]): inactive
fold change (FC) (Bacillus subtilis [24]): 2
growth inhibition (GI) (Escherichia coli [25]): Active
fold change (FC) (Bacillus subtilis [26]): 2
Activity (Escherichia coli [10]): Active
fold change (FC) (Escherichia coli [27]): 2
fold change (FC) (Pseudomonas aeruginosa [28]): 11
fold change (FC) (Pseudomonas aeruginosa [7]): 4
growth inhibition (GI) (Escherichia coli [29]): inactive
fold change (FC) (Pseudomonas aeruginosa [8]): 8
fold change (FC) (Pseudomonas aeruginosa [30]): 5
fold change (FC) (Escherichia coli [31]): 2
fold change (FC) (Escherichia coli [32]): 2
fold change (FC) (Pseudomonas aeruginosa [33]): 4
